Experimental data taken from patent US6555091B1, “Polypeptide capable of reacting with antibodies of patients suffering from multiple sclerosis and uses” (Bio Merieux, priority 1997, dated 2003).

Tested on: IgG of CSF from patients suffering from MS
Assay: ELISA of polypeptides, IgG response of CSFs diluted 1/10 (Table 5, FIGS. 7A and 7B)
Format: binding, human
Parameters: key to IgG recognition by CSF: positive (+) if the OD value at 492 nm for a 1/10 dilution of the CSF is greater than the mean values obtained for the CSFs from the ND patients+3 times the standard deviation
Details: for number of positive (+) CSFs: total line, 15 MS patients, CSF 1/10
From the text: FIGS. 7A and 7B represents the IgG response of the polypeptides whose peptide sequence consists of, respectively, SEQ ID NO: 13, SEQ ID NO: 12, SEQ ID NO: 14, SEQ ID NO: 16, SEQ ID NO: 19 and SEQ ID NO: 15, with respect to CSFs diluted 1/10; the results assembled in the appended Table 5 are expressed by the difference in the optical density values obtained for the polypeptide tested and the values obtained for the HIV polypeptide used as control; ND corresponds to patients suffering from a neurological disease other than MS, and MS* corresponds to patients suffering from MS.
Table 5, illustrated in FIGS. 7A and 7B, collates the results on the specific recognition of CSF from patients suffering from MS for 6 polypeptides of the invention, SEQ ID NO: 13, SEQ ID NO: 12, SEQ ID NO: 14, SEQ ID NO: 16, SEQ ID NO: 19 and SEQ ID NO: 15.
For each polypeptide tested, identified in Table 5 by its peptide sequence, the CSFs from patients 1-22 suffering from Ms are determined as positive (+) if the OD value at 492 nm for a 1/10 dilution of the CSF is greater than the mean values obtained for the CSFs from the ND patients+3 times the standard deviation.

Sequence | IgG recognition by CSF (CSF of MS patient 1, 1/10) | IgG recognition by CSF (CSF of MS patient 2, 1/10) | IgG recognition by CSF (CSF of MS patient 5, 1/10) | IgG recognition by CSF (CSF of MS patient 6, 1/10) | IgG recognition by CSF (CSF of MS patient 7, 1/10) | IgG recognition by CSF (CSF of MS patient 8, 1/10) | IgG recognition by CSF (CSF of MS patient 10, 1/10) | IgG recognition by CSF (CSF of MS patient 16, 1/10) | IgG recognition by CSF (CSF of MS patient 18, 1/10) | IgG recognition by CSF (CSF of MS patient 21, 1/10) | number of positive (+) CSFs | IgG recognition by CSF (CSF of MS patient 22, 1/10) | IgG recognition by CSF (CSF of MS patient 3, 1/10)
MPVSRLCIELDWCPP (MSRV) [SEQ ID NO: 12] | + | + | + | + | + | + | + | + | + | + | 10+ | – | –
RGTQEWTELWVSFRA (MSRV) [SEQ ID NO: 19] | – | – | + | + | + | + | + | – | + | + | 8+ | + | –
SRGSHEWAVLFRFYY (MSRV) [SEQ ID NO: 16] | + | + | + | + | + | + | + | – | + | + | 11+ | + | +
